From US20070128217A1 (priority 2003, published 2007)

Legend:
[1] = system: control sera (pooled serum of ten healthy LUMC hospital workers; commercial negative donor pooled serum from the Dutch bloodbank); type: binding, human; parameters: Binding of Control serum LUMC to linear peptides / Binding of Control serum Blood-bank to linear peptides / Binding of Control serum LUMC to looped peptides / Binding of Control Serum Blood-Bank to Looped peptides / Binding of Control serum LUMC to linear peptides of the protein M of SARS-CoV Urbani / Binding of Control serum Blood-bank to linear peptides of the protein M of SARS-CoV Urbani / Binding of Control serum LUMC to looped peptides of the protein M of SARS-CoV Urbani / Binding of Control Serum Blood-Bank to Looped peptides of the protein M of SARS-CoV Urbani: unit not given here
[2] = system: rabbit serum obtained by immunizing a rabbit with the SARS-CoV strain Frankfurt 1; type: binding; parameters: Binding of a rabbit serum to linear peptides / Binding of a rabbit serum to looped peptides / Rabbit serum linear peptides / Rabbit serum looped peptides / Binding of a rabbit serum to linear peptides of protein N of SARS-CoV Urbani (Rabbit serum linear peptides) / Binding of a rabbit serum to looped/cyclic peptides of protein N of SARS-CoV Urbani (Rabbit serum looped peptides): unit not given here
[3] = system: recombinant human anti-SARS-CoV antibody 03-018; type: binding; parameters: Binding of antibody 03-018 to linear peptides of the N protein of SARS-CoV Urbani / Binding of antibody 03-018 to looped/cyclic peptides of the N protein of SARS-CoV Urbani: unit not given here
[4] = system: antibodies in sera from SARS patients (sera 1a, 1b, 2, 6, 37, 62, London, SARS-yellow, SARS-green); type: binding, human; parameters: Binding of serum 6 to linear peptides of protein X1 of SARS-CoV Urbani / Binding of serum 37 to linear peptides of protein X1 of SARS-CoV Urbani / Binding of serum 6 to looped/cyclic peptide (PEPSCAN-ELISA) / Binding of serum 37 to looped/cyclic peptide (PEPSCAN-ELISA) / Binding of serum 37 to looped/cyclic peptides of protein X1 of SARS-CoV Urbani / Binding of serum 6 to linear peptides of protein X2 / Binding of serum 37 to linear peptides of protein X2 / Binding of serum 37 to looped/cyclic peptides of protein X2 of SARS-CoV Urbani / Binding of serum 6 to linear peptides of protein M of SARS-CoV Urbani / Binding of serum 37 to linear peptides of protein M of SARS-CoV Urbani / Binding of serum 6 to looped/cyclic peptides of protein M of SARS-CoV Urbani / Binding of serum 37 to looped/cyclic peptides of protein M of SARS-CoV Urbani / Binding of serum 6 to linear peptides of protein X3 of SARS-CoV Urbani / Binding of serum 37 to linear peptides of protein X3 of SARS-CoV Urbani / Binding of serum 37 to looped/cyclic peptides of protein X3 of SARS-CoV Urbani / Binding of serum 6 to linear peptides of protein X4 of SARS-CoV Urbani / Binding of serum 37 to linear peptides of protein X4 of SARS-CoV Urbani / Binding of serum 37 to looped/cyclic peptides of protein X4 of SARS-CoV Urbani / Binding of serum 6 to linear peptides of protein X5 of SARS-CoV Urbani / Binding of serum 37 to linear peptides of protein X5 of SARS-CoV Urbani / Binding of serum 37 to looped/cyclic peptides of protein X5 of SARS-CoV Urbani / Binding of serum 6 to linear peptides of protein N of SARS-CoV Urbani / Binding of serum 37 to linear peptides of protein N of SARS-CoV Urbani / Binding of serum 6 to linear peptide (PEPSCAN-ELISA) / Binding of serum 1a to looped/cyclic peptides of protein N of SARS-CoV Urbani / Binding of serum 1b to looped/cyclic peptides of protein N of SARS-CoV Urbani / Binding of serum 2 to looped/cyclic peptides of protein N of SARS-CoV Urbani / Binding of serum 6 to looped/cyclic peptides of protein N of SARS-CoV Urbani / Binding of serum 37 to looped/cyclic peptides of protein N of SARS-CoV Urbani / Binding of serum 62 to looped/cyclic peptides of protein N of SARS-CoV Urbani / Binding of serum London to looped/cyclic peptides of protein N of SARS-CoV Urbani / Binding of serum SARS-green to looped/cyclic peptides of protein N of SARS-CoV Urbani: unit not given here

Row | Sequence | Binding of a rabbit serum to linear peptides of protein N of SARS-CoV Urbani (Rabbit serum linear peptides) [2] | Binding of a rabbit serum to looped/cyclic peptides of protein N of SARS-CoV Urbani (Rabbit serum looped peptides) [2] | Binding of antibody 03-018 to linear peptides of the N protein of SARS-CoV Urbani [3] | Binding of antibody 03-018 to looped/cyclic peptides of the N protein of SARS-CoV Urbani [3] | Binding of serum 1a to linear peptides of protein N of SARS-CoV Urbani [4] | Binding of serum 1a to looped/cyclic peptides of protein N of SARS-CoV Urbani [4] | Binding of serum 1b to linear peptides of protein N of SARS-CoV Urbani [4] | Binding of serum 1b to looped/cyclic peptides of protein N of SARS-CoV Urbani [4] | Binding of serum 2 to linear peptides of protein N of SARS-CoV Urbani [4] | Binding of serum 2 to looped/cyclic peptides of protein N of SARS-CoV Urbani [4] | Binding of serum 6 to linear peptides of protein N of SARS-CoV Urbani [4] | Binding of serum 6 to looped/cyclic peptides of protein N of SARS-CoV Urbani [4] | Binding of serum 37 to linear peptides of protein N of SARS-CoV Urbani [4] | Binding of serum 37 to looped/cyclic peptides of protein N of SARS-CoV Urbani [4] | Binding of serum 62 to linear peptides of protein N of SARS-CoV Urbani [4] | Binding of serum 62 to looped/cyclic peptides of protein N of SARS-CoV Urbani [4] | Binding of serum London to linear peptides of protein N of SARS-CoV Urbani [4] | Binding of serum London to looped/cyclic peptides of protein N of SARS-CoV Urbani [4] | Binding of serum SARS-green to linear peptides of protein N of SARS-CoV Urbani [4] | Binding of serum SARS-green to looped/cyclic peptides of protein N of SARS-CoV Urbani [4] | other results
1 | STDNNQNGGRNGARP | 0.1 | 0.2 | 0.2 | 0.2 | 0.2 | 0.3 | 0.1 | 0.2 | 0.2 | 0.3 | 0.1 | 0.2 | 0.8 | 0.5 | 0.7 | 0.2 | 0.5 | 0.3 | 0.4 | 0.4 | Binding of Control Serum Blood-Bank to Looped peptides [1]: 0.5; Binding of Control serum Blood-bank to linear peptides [1]: 0.7; Binding of Control serum LUMC to linear peptides [1]: 0.6; Binding of Control serum LUMC to looped peptides [1]: 0.5; Binding of serum SARS-yellow to linear peptides of protein N of SARS-CoV Urbani [4]: 0.6; Binding of serum SARS-yellow to looped/cyclic peptides of protein N of SARS-CoV Urbani [4]: 0.3
2 | TALTQHGKEELRFPR | 0.1 | 0.4 | 0.1 | 0.3 | 0.2 | 0.4 | 0.1 | 0.3 | 0.2 | 0.6 | 0.1 | 0.5 | 0.7 | 0.8 | 0.6 | 0.6 | 0.5 | 0.6 | 0.4 | 0.7 | Binding of Control Serum Blood-Bank to Looped peptides [1]: 0.8; Binding of Control serum Blood-bank to linear peptides [1]: 0.8; Binding of Control serum LUMC to linear peptides [1]: 0.6; Binding of Control serum LUMC to looped peptides [1]: 0.8; Binding of serum SARS-yellow to linear peptides of protein N of SARS-CoV Urbani [4]: 0.5; Binding of serum SARS-yellow to looped/cyclic peptides of protein N of SARS-CoV Urbani [4]: 0.7
3 | TASWFTALTQHGKEE | 0.1 | 0.7 | 0.1 | 0.2 | 0.2 | 0.2 | 0.1 | 0.1 | 0.1 | 0.1 | 0.1 | 0.1 | 0.7 | 0.4 | 0.4 | 0.2 | 0.4 | 0.3 | 0.3 | 0.1 | Binding of Control Serum Blood-Bank to Looped peptides [1]: 0.4; Binding of Control serum Blood-bank to linear peptides [1]: 0.6; Binding of Control serum LUMC to linear peptides [1]: 0.5; Binding of Control serum LUMC to looped peptides [1]: 0.3; Binding of serum SARS-yellow to linear peptides of protein N of SARS-CoV Urbani [4]: 0.5; Binding of serum SARS-yellow to looped/cyclic peptides of protein N of SARS-CoV Urbani [4]: 0.2
4 | TDEAQPLPQRQKKQP | 0.1 | 0.0 | 0.1 | 0.1 | 0.2 | 0.2 | 0.2 | 0.0 | 0.3 | 0.2 | 0.2 | 0.1 | 0.7 | 0.1 | 0.7 | 0.0 | 1.2 | 0.1 | 0.7 | 0.0 | Control Serum Blood-Bank Looped peptides [1]: 0.5; Control serum Blood-bank linear peptides [1]: 0.7; Control serum LUMC linear peptides [1]: 0.6; Control serum LUMC looped peptides [1]: 0.2; Binding of serum SARS-yellow to linear peptides of protein N of SARS-CoV Urbani [4]: 1.0; Binding of serum SARS-yellow to looped/cyclic peptides of protein N of SARS-CoV Urbani [4]: 0.1
